The source of these data is patent US7825151B2, “Hexahydro-cyclooctyl pyrazole cannabinoid modulators” (priority 2005, dated 2010).

“And” between values parts separate entries of the source, which are not always exact repeats. Equal values may be shown once.

Assay [1] deals with T1, human CB1 receptor (Homo sapiens, UniProt P21554).
T1 construct: expressed in transfected cells; host or cells: SK-N-MC cells, stably transfected with pcDNA3 CB-1 (human)
As to the kind of experiment: Binding assay for CB1 ([3H]-CP-55,940 displacement, SK-N-MC membranes). The note with it: for IC50: Cannabinoid CB1 Receptor Binding IC50, radioligand CP-55,940 0.2 nM, SK-N-MC membranes; for inhibition at 10 µM: test concentration 10 μM (footnote 1). Here is the method:
(§1) The human CB1 and CB2 receptors were stably expressed in SK-N-MC cells transfected with pcDNA3 CB-1 (human) or pcDNA3 CB-2 (human). The cells were grown in T-180 cell culture flasks under standard cell culture conditions at 37° C. in a 5% CO2 atmosphere. The cells were harvested by trysinization and homogenized in a homogenization buffer (10 mM Tris, 0.2 mM MgCl2, 5 mM KCl, with protease inhibitors aprotinin, leupeptin, pepstatin A and bacitracin) and centrifuged (2000 g). The supernatant was then centrifuged in 2M sucrose (31,300 g) to produce a semi-purified membrane pellet. The pellet was resuspended in homogenization and stored at −80° C.
(§2) On the day of the assay, the pellet was thawed on ice and diluted in assay buffer (50 mM Tris-HCl, 5 mM MgCl2, 2.5 mM EDTA, 0.5 mg/mL fatty acid free bovine serum albumin, pH 7.5). The diluted membrane pellet was added with buffer, either a test compound or vehicle standard and the radioligand [H]^3+-CP-55,940 (0.2 nM) to the wells of a 96-well polypropylene plate. Non-specific binding was measured in wells containing WIN 55,212 (10 uM). The plate was covered and incubated for 90 minutes at 30° C. The contents were then aspirated onto a Packard Unifilter GF/C filter bottom plate prewet with 0.5% polyethyleneimine. The wells of the polypropylene plate were rinsed and aspirated seven times with a 0.9% saline-0.5% Tween 20 solution. The Unifilter plate was dried, scintillation cocktail was added to each well and the counts representing binding were quantitated in a TopCount scintillation counter.
(§3) For compounds tested, an IC50 binding value was obtained from percent inhibition studies in which various test concentrations were used. The binding value was calculated by linear regression.
(§4) For compounds without an IC50 binding value, the percent inhibition (%) was obtained at a test concentration of ^(1)10 μM, ^(2)1 μM, ^(3)0.2 μM, ^(4)0.003 μM, ^(5) represents an average value.

For assay [2], the target named is T2, CB2 receptor (Homo sapiens, UniProt P34972).
T2 construct: expressed in transfected cells; host or cells: SK-N-MC cells, stably transfected with pcDNA3 CB-2 (human)
As to the kind of experiment: Binding assay for CB2 ([3H]-CP-55,940 displacement, SK-N-MC membranes). The note with it: for IC50: Cannabinoid CB2 Receptor Binding IC50, radioligand CP-55,940 0.2 nM, SK-N-MC membranes. On the procedure: as §1, §2, §3, §4

The target in assay [3] is T1, human CB1 receptor. As to the kind of experiment: Functional cell-based CRE β-gal assay, CB1 (adenylate cyclase activity). The note with it: single test concentration 10 μM (footnote 1). An excerpt:
(§5) The CB1 and CB2 receptors are G-protein coupled receptors (GPCR), which influence cell function via the Gi-protein. These receptors modulate the activity of intracellular adenylate cyclase, which in turn produces the intracellular signal messenger cyclic-AMP (cAMP).
(§6) At baseline, or during non-ligand bound conditions, these receptors are constitutively active and tonically suppress adenylate cyclase activity. The binding of an agonist causes further receptor activation and produces additional suppression of adenylate cyclase activity. The binding of an inverse agonist inhibits the constitutive activity of the receptors and results in an increase in adenylate cyclase activity.
(§7) By monitoring intracellular adenylate cyclase activity, the ability of compounds to act as agonists or inverse agonists can be determined.
(§8) Test compounds were evaluated in SK-N-MC cells which, using standard transfection procedures, were stably transfected with human cDNA for pcDNA3-CRE β-gal and pcDNA3 CB1 receptor (human) or pcDNA3 CB2 receptor (human). By expressing CRE β-gal, the cells produced β-galactosidase in response to CRE promoter activation by cAMP. Cells expressing CRE β-gal and either the human CB1 or CB2 receptor will produce less β-galactosidase when treated with a CB1/CB2 agonist and will produce more β-galactosidase when treated with a CB1/CB2 inverse agonist.
(§9) The cells were grown in 96-well plates under standard cell culture conditions at 37° C. in a 5% CO2 atmosphere. After 3 days, the media was removed and a test compound in media (wherein the media was supplemented with 2 mM L-glutamine, […] sodium pyruvate, 0.1% low fatty acid FBS (fetal bovine serum) and antibiotics) was added to the cell. The plates were incubated for 30 minutes at 37° C. and the plate cells were then treated with forskolin over a 4-6 hour period, then washed and lysed. The β-galactosidase activity was quantitated using commercially available kit reagents (Promega Corp. Madison, Wis.) and a Vmax Plate Reader (Molecular Devices, Inc).
(§10) The change in β-galactosidase activity was determined by setting a vehicle treated cell's activity value at 100% and expressing the β-galactosidase activity measured in a corresponding compound treated cell as a percent of the vehicle treated cell activity.
The EC50 value for functional activity for compounds tested was calculated by linear regression and was obtained from studies in which varying compound concentrations were used. Data provided for certain compounds is represented by percent change (%) in functional activity at a single test concentration: ^(1)10 μM and ^(2)1 μM.

The target in assay [4] is T2, CB2 receptor. In words: Functional cell-based CRE β-gal assay, CB2 (adenylate cyclase activity).
Source text: as §5, §6, §7, §8, §9
For cells expressing CRE β-gal and the CB2 receptor, CB2 agonists reduced β-galactosidase activity in a dose-dependent manner and CB2 inverse agonists increase β-galactosidase activity in a dose-dependent manner.
as §10
The EC50 value for functional activity for compounds tested was calculated by linear regression and was obtained from studies in which varying compound concentrations were used.
The value of 29% for Compound 5 represents change in functional activity and was obtained from a study in which one compound concentration was used.

For assay [5], the target named is T2, CB2 receptor. In words: Modified functional cell-based assay (Beta-Glo luminescence), CB2 agonist. On the procedure:
Additional functional activity studies were performed with minor modifications. Beta galactosidase activity was quantified using the luminescent Beta-Glo Assay System (Promega Corp. Madison, Wis.) and an Orion Microplate Luminometer (Berthold Detection Systems, Oak Ridge, Tenn.). The EC50 values were calculated using GraphPad Prism and a four parameter logistic equation.

[6] abbreviates: read-out: CB1 receptor binding percent inhibition.

T2 sequence (P34972 whole entry): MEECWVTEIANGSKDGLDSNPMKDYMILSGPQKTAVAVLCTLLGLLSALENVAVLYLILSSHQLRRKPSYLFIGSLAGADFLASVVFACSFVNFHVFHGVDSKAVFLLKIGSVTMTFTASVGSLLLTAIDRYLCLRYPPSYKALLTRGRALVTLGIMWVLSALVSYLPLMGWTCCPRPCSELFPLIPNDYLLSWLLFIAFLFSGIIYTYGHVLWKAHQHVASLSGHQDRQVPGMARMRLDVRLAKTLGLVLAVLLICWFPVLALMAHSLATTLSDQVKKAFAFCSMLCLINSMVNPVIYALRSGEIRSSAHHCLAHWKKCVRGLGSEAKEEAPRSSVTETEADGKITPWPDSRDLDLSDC
T1 sequence (P21554 whole entry): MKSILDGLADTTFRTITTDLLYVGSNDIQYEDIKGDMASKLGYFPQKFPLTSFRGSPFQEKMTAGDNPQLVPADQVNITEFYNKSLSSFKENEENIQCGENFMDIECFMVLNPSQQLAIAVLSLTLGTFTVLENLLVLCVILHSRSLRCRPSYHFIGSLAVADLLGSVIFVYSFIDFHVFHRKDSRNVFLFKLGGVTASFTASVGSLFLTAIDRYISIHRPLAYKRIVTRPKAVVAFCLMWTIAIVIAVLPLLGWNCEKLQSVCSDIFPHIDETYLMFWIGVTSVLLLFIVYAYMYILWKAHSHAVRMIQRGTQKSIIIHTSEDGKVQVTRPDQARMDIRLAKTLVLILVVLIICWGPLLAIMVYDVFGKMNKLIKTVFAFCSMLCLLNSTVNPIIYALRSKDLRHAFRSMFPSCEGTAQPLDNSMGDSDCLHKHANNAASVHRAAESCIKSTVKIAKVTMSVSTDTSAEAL

On to `CC12CCC(C1)C(C)(C)C2NC(=O)c1nn(C2CCCCC2)c2c1CCCCCC2` (stereo not drawn) [Cpd 1, 1-cyclohexyl-4,5,6,7,8,9-hexahydro-1H-cyclooctapyrazole-3-carboxylic acid (1,3,3-trimethyl-bicyclo[2.2.1]hept-2-yl)-amide], for which the IC50 – broadly, the concentration that inhibits the measured activity by half – in assay [1] is 40 nM; in assay [2], 0.1 nM and 0.09 nM. The “CB1 receptor percent change in functional activity” value (“CB1 receptor percent change” for short) in assay [3] is listed as “^(1)−78%”. In assay [4], the 50% effective concentration (EC50) (commonly the concentration giving half of the maximal effect) is 1.6 nM.
Take `O=C(NCC12CC3CC(CC(C3)C1)C2)c1nn(C2CCCC2)c2c1CCCCCC2` [Cpd 3, 1-cyclopentyl-4,5,6,7,8,9-hexahydro-1H-cyclooctapyrazole-3-carboxylic acid (adamantan-1-ylmethyl)-amide]: the inhibition (usually the drop in the measured response relative to a control, in per cent) at 10 µM in assay [1] (setting [6]) worked out at 45%. This molecule yielded a concentration for half-maximal inhibition (IC50) in assay [2] of 20 nM. Further, in assay [3], the “CB1 receptor percent change” value is recorded as “^(1)−6%”. Further, the response in assay [4] was half-maximal at 200 nM (EC50).
Take `CC(NC(=O)c1nn(C2CCCC2)c2c1CCCCCC2)C12CC3CC(CC(C3)C1)C2` (stereo not drawn) [Cpd 5, 1-cyclopentyl-4,5,6,7,8,9-hexahydro-1H-cyclooctapyrazole-3-carboxylic acid (1-adamantan-1-yl-ethyl)-amide]: in assay [1] (setting [6]), the inhibition at 10 µM was 47%. The same molecule displayed an IC50 in assay [2] of 100 nM. For the same molecule, the “CB1 receptor percent change” value in assay [3] was “^(1)10%”. Moreover, the “CB2 receptor change in functional activity” value in assay [4] (one compound concentration) worked out at 29%.
With `CC(NC(=O)c1nn(C2CCCCC2)c2c1CCCCCC2)C12CC3CC(CC(C3)C1)C2` (stereo not drawn) [Cpd 6, 1-cyclohexyl-4,5,6,7,8,9-hexahydro-1H-cyclooctapyrazole-3-carboxylic acid (1-adamantan-1-yl-ethyl)-amide], the IC50 in assay [1] is 300 nM; in assay [2], 0.6 nM and 0.7 nM. The inhibition at 1 µM was 86% in assay [1] (test concentration 1 μM (footnote 2), read-out: CB1 receptor binding percent inhibition) and 91% in assay [2] (read-out: CB2 receptor binding percent inhibition). This molecule also yielded an EC50 in assay [4] of 29 nM.
In assay [5], `O=C(N[C@@H](CO)c1ccccc1)c1n[nH]c2c1CCCCC/C2=C\c1cccc(Cl)c1` [Cpd 31, (9E)-(3-chloro-benzylidene)-4,5,6,7,8,9-hexahydro-1H-cyclooctapyrazole-3-carboxylic acid [(1R)-2-hydroxy-1-phenyl-ethyl]-amide] registered a concentration giving a half-maximal response (EC50) of 18 nM.
